Values joined by “and” are separate entries in the source; they are usually repeats but may differ in a detail not shown here. Identical values can stand only once.
Tests used:
recombinant PKR1 = recombinant PKR1 (Homo sapiens (Human), UniProt Q8TCW9); experiment: Aequorin-based luminescent Ca2+ mobilization assay, antagonist mode, PKR1; type: cell-based; conditions: CHO cells stably expressing aequorin and recombinant PKR1; challenge with recombinant PK2; Ki converted from IC50 by IC50/(1+[PK2]/EC50PK2)
Method: (§1) An aequorin-based luminescent assay for calcium mobilization was used to measure mobilization of intracellular Ca^2+ (Bullock et al., Mol Pharmacol 65, 582-588, 2004). Chinese hamster ovary (CHO) cells stably expressing photoprotein aequorin and recombinant PKR1 or PKR2 were tested by this method. Briefly, the cells were charged in Opti-MEM™ (Invitrogen) containing 8 μM of coelenterazine cp at 37° C. for 2 hours. Cells were detached by brief trypsinization and maintained in Hank's Balanced Salt Solution (HBSS) plus 10 mM HEPES (pH7.5) and 0.1% BSA at about 5×10^5 cells/ml. Luminescence measurements were made using a Berthold luminometer.
(§2) All compounds were diluted in HBSS plus 10 mM HEPES (pH7.5) and 0.1% BSA. To test the agonist activity, 100 μl of cells were injected into the tubes with 20 μl of compounds. For antagonist assays, 80 μl cells were incubated in the tubes with 20 μl different concentrations of antagonists at room temperature for 20 minutes, and then 100 μl of recombinant PK2 were injected. The IC50 obtained from the assays were then converted to Ki values using the formula: IC50/(1+[PK2]/EC50PK2).

recombinant PKR2 = recombinant PKR2 (Homo sapiens (Human), UniProt Q8NFJ6); experiment: Aequorin-based luminescent Ca2+ mobilization assay, antagonist mode, PKR2; type: cell-based; conditions: CHO cells stably expressing aequorin and recombinant PKR2; challenge with recombinant PK2; Ki converted from IC50 by IC50/(1+[PK2]/EC50PK2)
Method: as §1, §2

mice [1] = experiment: Locomotor activity in mice after PK2 antagonist; type: in vivo
mice [2] = experiment: Arousal level (EEG/EMG wake time) in mice after PK2 antagonist; type: in vivo
monkeys = experiment: Sleep time in monkeys (wireless sleep tracker) after PK2 antagonist; type: in vivo, Macaca fascicularis

recombinant PKR1, sequence (Q8TCW9 whole entry): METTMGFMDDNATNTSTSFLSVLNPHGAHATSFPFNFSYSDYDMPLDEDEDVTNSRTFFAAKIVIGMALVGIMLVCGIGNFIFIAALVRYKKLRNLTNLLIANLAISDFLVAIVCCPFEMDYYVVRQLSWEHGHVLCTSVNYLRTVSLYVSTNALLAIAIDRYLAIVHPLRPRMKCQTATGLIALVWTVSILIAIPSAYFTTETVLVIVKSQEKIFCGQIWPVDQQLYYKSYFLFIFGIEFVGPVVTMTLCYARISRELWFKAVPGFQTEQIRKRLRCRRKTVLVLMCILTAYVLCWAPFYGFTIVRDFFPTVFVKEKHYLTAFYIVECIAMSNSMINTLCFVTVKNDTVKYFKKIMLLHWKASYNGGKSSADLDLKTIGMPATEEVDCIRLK
recombinant PKR2, sequence (Q8NFJ6 whole entry): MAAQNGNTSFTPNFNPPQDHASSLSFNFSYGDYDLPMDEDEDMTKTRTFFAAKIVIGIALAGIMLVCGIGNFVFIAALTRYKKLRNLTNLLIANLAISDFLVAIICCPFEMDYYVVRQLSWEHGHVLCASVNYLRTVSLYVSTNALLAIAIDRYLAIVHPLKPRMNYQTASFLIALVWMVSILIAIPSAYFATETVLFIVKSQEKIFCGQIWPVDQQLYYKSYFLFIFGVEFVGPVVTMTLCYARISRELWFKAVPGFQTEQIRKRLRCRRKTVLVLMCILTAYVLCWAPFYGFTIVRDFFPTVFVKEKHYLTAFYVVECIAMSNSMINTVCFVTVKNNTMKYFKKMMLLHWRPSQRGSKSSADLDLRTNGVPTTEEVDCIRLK

| Structure (SMILES) | Ki (recombinant PKR1) | further results |
| --- | --- | --- |
| COc1ccccc1CN1CCO[C@@H](C(=O)N(Cc2cc(Cl)c3c(c2)OCCCO3)CC(C)C)C1 [(−)-(2R)-1-(2-Methoxybenzyl)-N-(9-chloro-3,4-dihydro-2H-1,5-benzodioxepin-7-ylmethyl)-N-isobutylmorpholine-2-carboxamide] | 1.49 nM |  |
| COc1cc(F)ccc1CN1CCO[C@@H](C(=O)N(Cc2cc(Cl)c3c(c2)OCCCO3)CC(C)C)C1 [(−)-(2R)-1-(4-Fluoro-2-methoxybenzyl)-N-(9-chloro-3,4-dihydro-2H-1,5-benzodioxepin-7-ylmethyl)-N-isobutylmorpholine-2-carboxamide] | 7.3 nM |  |
| COc1cc(CN2CCO[C@@H](C(=O)N(Cc3cc(Cl)c4c(c3)OCCCO4)CC(C)C)C2)ccc1F [(−)-(2R)-1-(4-Fluoro-3-methoxybenzyl)-N-(9-chloro-3,4-dihydro-2H-1,5-benzodioxepin-7-ylmethyl)-N-isobutylmorpholine-2-carboxamide] | 2.6 nM and 5.4 nM | Ki (recombinant PKR2): 1.9 nM |
| CC(C)CN(Cc1cc(Cl)c2c(c1)OCCCO2)C(=O)C(C)CNCc1ccc(F)c(O)c1 (racemic) [(±)-2-Methyl-3-((3-hydroxy-4-fluoro)benzylamino)-N-(9-chloro-3,4-dihydro-2H-1,5-benzodioxepin-7-ylmethyl)-N-isobutylpropanamide] | 4.4 nM |  |
| COc1cc(CN2CC[C@@H](C(=O)N(Cc3cc(Cl)c4c(c3)OCCCO4)CC(C)C)C2)ccc1F [PKRA83, (3R)-1-(4-Fluoro-3-methoxybenzyl)-N-(9-chloro-3,4-dihydro-2H-1,5-benzodioxepin-7-ylmethyl)-N-isobutylpyrrolidine-3-carb oxamide] |  | locomotor activity (mice [1]; mice, 40 mg/kg intraperitoneally at ZT6, vs vehicle (FIG. 6A)): significantly increased; locomotor activity (mice [1]; wild type mice, ocular topic delivery during the late night, vs control (FIG. 13)): increased; wakefulness (wake time) (mice [2]; 40 mg/kg intraperitoneally at ZT6, vs vehicle (FIG. 6B)): significantly increased; wake time (mice [2]; ocular topic application at day time, P<0.05 paired t-test (FIG. 14)): significantly increased; increase of the sleep time (monkeys; 10 mg/kg intramuscularly at ZT10, vs vehicle (FIG. 6C)): > 70 min; sleep time (monkeys; nasal topic application, P<0.05 paired t-test (FIG. 19)): significantly increased; sleep time (monkeys; ocular topic application, P<0.05 paired t-test (FIG. 15)): significantly increased |
| COc1cc(CN2CCO[C@@H](C(=O)N(Cc3cc(Cl)c4c(c3)OCCCO4)CC(C)C)C2)c(F)cc1F [(−)-(2R)-1-(4,6-Difluoro-3-methoxybenzyl)-N-(9-chloro-3,4-dihydro-2H-1,5-benzodioxepin-7-ylmethyl)-N-isobutylmorpholine-2-carboxamide] | 4.09 nM |  |
| CC(C)CN(Cc1cc(Cl)c2c(c1)OCCCO2)C(=O)C(C)CNCc1cccc2nc[nH]c12 (racemic) [(±)-2-Methyl-3-(benzimidazol-4-ylmethylamino)-N-(9-chloro-3,4-dihydro-2H-1,5-benzodioxepin-7-ylmethyl)-N-isobutylpropanamide] | 5.6 nM | Ki (recombinant PKR2): 2.1 nM |
| CC(C)CN(Cc1cc(Cl)c2c(c1)OCCCO2)C(=O)[C@H]1CN(Cc2cc(F)cc3nc[nH]c23)CCO1 [(−)-(2R)-1-(5-fluro-benzimidazol-4-ylmethyl)-N-(9-chloro-3,4-dihydro-2H-1,5-benzodioxepin-7-ylmethyl)-N-isobutylmorpholine-2-carboxamide] | 6.14 nM |  |
| COc1ccc(F)cc1CN1CCO[C@@H](C(=O)N(Cc2cc(Cl)c3c(c2)OCCCO3)CC(C)C)C1 [(−)-(2R)-1-(5-Fluoro-2-methoxybenzyl)-N-(9-chloro-3,4-dihydro-2H-1,5-benzodioxepin-7-ylmethyl)-N-isobutylmorpholine-2-carboxamide] | 7.3 nM |  |
| COc1cc(CNCC(C)C(=O)N(Cc2cc(Cl)c3c(c2)OCCCO3)CC(C)C)c(F)cc1F (racemic) [(±)-2-Methyl-3-((3-methoxy-4,6-difluoro)benzylamino)-N-(9-chloro-3,4-dihydro-2H-1,5-benzodioxepin-7-ylmethyl)-N-isobutylpropanamide] | 43.5 nM |  |
| COc1cccc(CN2CCO[C@@H](C(=O)N(Cc3cc(Cl)c4c(c3)OCCCO4)CC(C)C)C2)c1 [(−)-(2R)-1-(3-Methoxybenzyl)-N-(9-chloro-3,4-dihydro-2H-1,5-benzodioxepin-7-ylmethyl)-N-isobutylmorpholine-2-carboxamide] | 2.5 nM |  |

The next lines start with results.

| Ki (recombinant PKR1) | Structure (SMILES) | further results |
| --- | --- | --- |
| 97 nM | CC(C)CN(Cc1cc(Cl)c2c(c1)OCCCO2)C(=O)[C@@H]1CCCN(Cc2cccc3nc[nH]c23)C1 [(−)-(3R)-1-(benzimidazol-4-ylmethyl)-N-(9-chloro-3,4-dihydro-2H-1,5-benzodioxepin-7-ylmethyl)-N-isobutylpiperidine-3-carboxamide] | Ki (recombinant PKR2): 3 nM |
| 301 nM | COc1ccc(F)c(CN2CC[C@@H](C(=O)N(Cc3cc(Cl)c4c(c3)OCCCO4)CC(C)C)C2)c1 [(−)-(3R)-1-(6-Fluoro-3-methoxybenzyl)-N-(9-chloro-3,4-dihydro-2H-1,5-benzodioxepin-7-ylmethyl)-N-isobutylpyrrolidine-3-carboxamide] |  |
| 71.3 nM | CC(C)CN(Cc1cc(Cl)c2c(c1)OCCCO2)C(=O)[C@@H]1CCN(Cc2cc(F)cc3nc[nH]c23)C1 [(−)-(3R)-1-(5-fluro-benzimidazol-4-ylmethyl)-N-(9-chloro-3,4-dihydro-2H-1,5-benzodioxepin-7-ylmethyl)-N-isobutylpyrrolidine-3-carboxamide] |  |
| 3.5 nM and 4.2 nM | CC(C)CN(Cc1cc(Cl)c2c(c1)OCCCO2)C(=O)[C@H](C)CNCc1cccc2nc[nH]c12 [(−)-(2R)-2-Methyl-3-(benzimidazol-4-ylmethylamino)-N-(9-chloro-3,4-dihydro-2H-1,5-benzodioxepin-7-ylmethyl)-N-isobutylpropanamide] |  |
| 170 nM | COc1c(F)cccc1CN1CC[C@@H](C(=O)N(Cc2cc(Cl)c3c(c2)OCCCO3)CC(C)C)C1 [(−)-(3R)-1-(3-Fluoro-2-methoxybenzyl)-N-(9-chloro-3,4-dihydro-2H-1,5-benzodioxepin-7-ylmethyl)-N-isobutylpyrrolidine-3-carboxamide] |  |
| 6.14 nM | COc1cc(CN2CC[C@@H](C(=O)N(Cc3cc(Cl)c4c(c3)OCCCO4)CC(C)C)C2)c(F)cc1F [(−)-(3R)-1-(4,6-Difluoro-3-methoxybenzyl)-N-(9-chloro-3,4-dihydro-2H-1,5-benzodioxepin-7-ylmethyl)-N-isobutylpyrrolidine-3-carboxamide] |  |
| 2.6 nM | CC(C)CN(Cc1cc(Cl)c2c(c1)OCCCO2)C(=O)[C@@H]1CCN(Cc2cccc3nc[nH]c23)C1 [(−)-(3R)-1-(benzimidazol-4-ylmethyl)-N-(9-chloro-3,4-dihydro-2H-1,5-benzodioxepin-7-ylmethyl)-N-isobutylpyrrolidine-3-carboxamide] | Ki (recombinant PKR2): 1.7 nM |
| 10 nM | COc1ccc(F)c(CN2CCO[C@@H](C(=O)N(Cc3cc(Cl)c4c(c3)OCCCO4)CC(C)C)C2)c1 [(−)-(2R)-1-(6-Fluoro-3-methoxybenzyl)-N-(9-chloro-3,4-dihydro-2H-1,5-benzodioxepin-7-ylmethyl)-N-isobutylmorpholine-2-carboxamide] |  |
| 9.32 nM | COc1cc(F)ccc1CN1CC[C@@H](C(=O)N(Cc2cc(Cl)c3c(c2)OCCCO3)CC(C)C)C1 [(−)-(3R)-1-(4-Fluoro-2-methoxybenzyl)-N-(9-chloro-3,4-dihydro-2H-1,5-benzodioxepin-7-ylmethyl)-N-isobutylpyrrolidine-3-carboxamide] |  |
| 107 nM | CC(C)CN(Cc1cc(Cl)c2c(c1)OCCCO2)C(=O)[C@@H]1CCN(Cc2ccc(F)c(O)c2)C1 [(−)-(3R)-1-(4-Fluoro-3-hydroxybenzyl)-N-(9-chloro-3,4-dihydro-2H-1,5-benzodioxepin-7-ylmethyl)-N-isobutylpyrrolidine-3-carboxamide] |  |
| 9.3 nM and 6.9 nM | COc1ccc(F)cc1CN1CC[C@@H](C(=O)N(Cc2cc(Cl)c3c(c2)OCCCO3)CC(C)C)C1 [(−)-(3R)-1-(5-Fluoro-2-methoxybenzyl)-N-(9-chloro-3,4-dihydro-2H-1,5-benzodioxepin-7-ylmethyl)-N-isobutylpyrrolidine-3-carboxamide] |  |
| 13.8 nM | COc1cc(CN2CCC[C@@H](C(=O)N(Cc3cc(Cl)c4c(c3)OCCCO4)CC(C)C)C2)c(F)cc1F [(−)-(3R)-1-(4,6-Difluoro-3-methoxybenzyl)-N-(9-chloro-3,4-dihydro-2H-1,5-benzodioxepin-7-ylmethyl)-N-isobutylpiperidine-3-carboxamide] |  |

From patent US10780095B2, “Compositions and methods for treating disorders of circadian and diurnal rhythms using prokineticin 2 agonists and antagonists” (THE REGENTS OF THE UNIVERSITY OF CALIFORNIA, priority 2016, dated 2020)
